{"source": "patent US20230285261A1", "about": "“FRAGRANCE COMPOSITION COMPRISING A FRAGRANCE COMPONET AND A NON-ODOROUS FRAGRANCE MODULATOR” (Coty Inc., priority 2020, published 2023)", "excerpt": "Classical perfume contain a high % of ethanol to solubilize perfume raw materials.", "data": [{"smiles": "C[C@@H]1CC[C@H]2C(C)(C)[C@H]3C[C@@]12CC[C@@]3(C)O", "note": "[Cerdol Crystals, Cedrol Crystals]", "values": [{"measurement": "Max Solubility in 83% Ethanol/17% Glucam solution", "result": 0.431, "unit": "g"}, {"measurement": "Max Solubility in 88% Ethanol/12% Water solution", "result": 0.273, "unit": "g"}, {"measurement": "solubility increase, glucam-containing vs classical ethanol solution", "result": 57.8, "unit": "%"}]}]}
